# Experimental data published in patent US11414424B2, “Cardiac sarcomere inhibitors” (Cytokinetics, Inc., priority 2018, dated 2022).
# System: bovine cardiac myofibrils
# Assay: Myofibril assay: PK/LDH-coupled steady-state ATPase activity of skinned bovine cardiac myofibrils
# Format: biochemical
# Conditions: Ca2+ activating to 75% of maximal rate
# Procedure, shortened: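 Steady-state ATPase of detergent-skinned bovine left-ventricular myofibrils (1 mg/mL), PK/LDH-coupled NADH read at 340 nm, in PIPES/MgCl2 buffer pH 6.8 with 50 μM ATP, 0.6 mM EGTA and CaCl2 set for 50% or 75% activation. Inhibition of activity measured.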
row,Compound,CDMF75 IC15
1,"CCNC(=O)N1CCC2(C1)C(=O)N(C(C)C)CC(=O)N2Cc1ccc(Cl)cc1 (centres unmarked) [Compound 119, 6-(4-chlorobenzyl)-N-ethyl-9-isopropyl-7,10-dioxo-2,6,9-triazaspiro[4.5]-decane-2-carboxamide]",10.8 µM
2,"CC(C)N1CC(=O)N(Cc2ccc(Cl)cc2)C2(CCN(C(N)=O)C2)C1=O (centres unmarked) [Compound 120, 6-(4-chlorobenzyl)-9-isopropyl-7,10-dioxo-2,6,9-triazaspiro[4.5]decane-2-carboxamide]",18.3 µM
3,"CNC(=O)N1CCC2(C1)C(=O)N(C(C)C)CC(=O)N2Cc1ccc(Cl)cc1 (centres unmarked) [Compound 121, 6-(4-chlorobenzyl)-9-isopropyl-N-methyl-7,10-dioxo-2,6,9-triazaspiro[4.5]-decane-2-carboxamide]",9.9 µM
4,"CC(C)N1CC(=O)N(Cc2ccc(Cl)cc2)C2(CCN(C(=O)NC3CC3)C2)C1=O (centres unmarked) [Compound 122, 6-(4-chlorobenzyl)-N-cyclopropyl-9-isopropyl-7,10-dioxo-2,6,9-triazaspiro[4.5]decane-2-carboxamide]",20.5 µM
5,"CC(C)N1CC(=O)N(Cc2ccc(Cl)cc2)C2(CCN(C(=O)Nc3ccccc3)C2)C1=O (centres unmarked) [Compound 123, 6-(4-chlorobenzyl)-9-isopropyl-7,10-dioxo-N-phenyl-2,6,9-triazaspiro-[4.5]decane-2-carboxamide]",11.2 µM
6,"CC(C)N1CC(=O)N(Cc2ccc(Cl)cc2)C2(CCN(c3ccccc3)C2)C1=O (centres unmarked) [Compound 127, 6-(4-chlorobenzyl)-9-isopropyl-2-phenyl-2,6,9-triazaspiro[4.5]decane-7,10-dione]",0.8 µM
7,"CC(C)N1CC(=O)N(Cc2ccc(Cl)cc2)C2(CCN(c3ccccn3)C2)C1=O (centres unmarked) [Compound 128, 6-(4-chlorobenzyl)-9-isopropyl-2-(pyridin-2-yl)-2,6,9-triazaspiro[4.5]decane-7,10-dione]",0.8 µM
8,"Cc1cc(N2CCC3(C2)C(=O)N(C(C)C)CC(=O)N3Cc2ccc(Cl)cc2)ccn1 (centres unmarked) [Compound 129, 6-(4-chlorobenzyl)-9-isopropyl-2-(2-methyl-pyridin-4-yl)-2,6,9-triazaspiro-[4.5]decane-7,10-dione]",4.6 µM
9,"CC(C)N1CC(=O)N(C(C)c2ccc(C(F)(F)F)cc2)C2(CN(c3ccccn3)C2)C1=O (centres unmarked) [Compound 138, 8-isopropyl-2-(pyridin-2-yl)-5-(1-(4-(trifluoromethyl)-phenyl)ethyl)-2,5,8-triazaspiro[3.5]nonane-6,9-dione]",7.0 µM
10,"CNC(=O)N1CC2(C1)C(=O)N(C(C)C)CC(=O)N2C(C)c1ccc(C(F)(F)F)cc1 (centres unmarked) [Compound 139, 8-isopropyl-N-methyl-6,9-dioxo-5-(1-(4-(trifluoromethyl)phenyl)-ethyl)-2,5,8-triazaspiro-[3.5]nonane-2-carboxamide]",14.8 µM
11,"CC(C)N1CC(=O)N(C(C)c2ccc(C(F)(F)F)cc2)C2(CN(c3ccccc3)C2)C1=O (centres unmarked) [Compound 140, 8-isopropyl-2-phenyl-5-(1-(4-(trifluoromethyl)phenyl)-ethyl)-2,5,8-triazaspiro-[3.5]nonane-6,9-dione]",4.4 µM
12,"CC(C)N1CC(=O)N([C@H](C)c2ccc(C(F)(F)F)cc2)C2(CN(c3ccccc3)C2)C1=O [Compound 141, (R)-8-isopropyl-2-phenyl-5-(1-(4-(trifluoromethyl)-phenyl)ethyl)-2,5,8-triazaspiro[3.5]nonane-6,9-dione]",10.7 µM
13,"CC(C)N1CC(=O)N([C@@H](C)c2ccc(C(F)(F)F)cc2)C2(CN(c3ccccc3)C2)C1=O [Compound 142, (S)-8-isopropyl-2-phenyl-5-(1-(4-(trifluoromethyl)phenyl)ethyl)-2,5,8-triazaspiro[3.5]nonane-6,9-dione]",0.8 µM
14,"CNC(=O)N1CC2(C1)C(=O)N(c1ccc(OC)cc1)CC(=O)N2Cc1ccc(C(F)(F)F)cc1 [Compound 145, 8-(4-methoxyphenyl)-N-methyl-6,9-dioxo-5-(4-(trifluoromethyl)benzyl)-2,5,8-triazaspiro[3.5]-nonane-2-carboxamide]",3.8 µM
15,"CNC(=O)N1CC2(C1)C(=O)N(c1ccc(C#N)cc1)CC(=O)N2Cc1ccc(C(F)(F)F)cc1 [Compound 146, 8-(4-cyanophenyl)-N-methyl-6,9-dioxo-5-(4-(trifluoromethyl)benzyl)-2,5,8-triazaspiro[3.5]-nonane-2-carboxamide]",1.2 µM
16,"CNC(=O)N1CC2(C1)C(=O)N(c1ccc(C#N)nc1)CC(=O)N2Cc1ccc(C(F)(F)F)cc1 [Compound 147, 8-(6-cyanopyridin-3-yl)-N-methyl-6,9-dioxo-5-(4-(trifluoromethyl)benzyl)-2,5,8-triazaspiro[3.5]-nonane-2-carboxamide]",8.1 µM

row,Compound,CDMF75 IC15
1,"CNC(=O)N1CC2(C1)C(=O)N(c1ccc(C(=O)OC)cc1)CC(=O)N2Cc1ccc(C(F)(F)F)cc1 [Compound 148, methyl 4-(2-(methylcarbamoyl)-6,9-dioxo-5-(4-(trifluoro-methyl)benzyl)-2,5,8-triazaspiro[3.5]nonan-8-yl)benzoate]",2.3 µM
2,"CNC(=O)N1CC2(C1)C(=O)N(c1ccc(F)cc1)CC(=O)N2Cc1ccc(C(F)(F)F)cc1 [Compound 149, 8-(4-fluorophenyl)-N-methyl-6,9-dioxo-5-(4-(trifluoromethyl)benzyl)-2,5,8-triazaspiro[3.5]-nonane-2-carboxamide]",8.9 µM
3,"CNC(=O)N1CC2(C1)C(=O)N(c1ccc(C(F)(F)F)cc1)CC(=O)N2Cc1ccc(C(F)(F)F)cc1 [Compound 151, N-methyl-6,9-dioxo-5-(4-(trifluoromethyl)benzyl)-8-(4-(trifluoromethyl)phenyl)-2,5,8-triazaspiro[3.5]nonane-2-carboxamide]",12.2 µM
4,"CNC(=O)N1CC2(C1)C(=O)N(c1ccc(F)c(F)c1)CC(=O)N2Cc1ccc(C(F)(F)F)cc1 [Compound 152, 8-(3,4-difluorophenyl)-N-methyl-6,9-dioxo-5-(4-(trifluoromethyl)benzyl)-2,5,8-triazaspiro[3.5]nonane-2-carboxamide]",2.8 µM
5,"CNC(=O)N1CC2(C1)C(=O)N(c1ccc(C)cc1)CC(=O)N2Cc1ccc(C(F)(F)F)cc1 [Compound 153, N-methyl-6,9-dioxo-8-(p-tolyl)-5-(4-(trifluoromethyl)benzyl)-2,5,8-triazaspiro[3.5]-nonane-2-carboxamide]",6.4 µM
6,"CNC(=O)N1CC2(C1)C(=O)N(c1ccc(OC)nc1)CC(=O)N2Cc1ccc(C(F)(F)F)cc1 [Compound 154, 8-(6-methoxypyridin-3-yl)-N-methyl-6,9-dioxo-5-(4-(trifluoromethyl)benzyl)-2,5,8-triazaspiro[3.5]-nonane-2-carboxamide]",19.8 µM
7,"CNC(=O)N1CC2(C1)C(=O)N(c1ccc(Cl)c(F)c1)CC(=O)N2Cc1ccc(C(F)(F)F)cc1 [Compound 155, 8-(4-chloro-3-fluorophenyl)-N-methyl-6,9-dioxo-5-(4-(trifluoromethyl)benzyl)-2,5,8-triazaspiro[3.5]-nonane-2-carboxamide]",0.6 µM
8,"CNC(=O)N1CC2(C1)C(=O)N(c1ccc(Cl)cn1)CC(=O)N2Cc1ccc(C(F)(F)F)cc1 [Compound 156, 8-(5-chloropyridin-2-yl)-N-methyl-6,9-dioxo-5-(4-(trifluoromethyl)benzyl)-2,5,8-triazaspiro[3.5]-nonane-2-carboxamide]",7.1 µM
9,"CNC(=O)N1CC2(C1)C(=O)N(c1ccc(C(F)F)cc1)CC(=O)N2Cc1ccc(C(F)(F)F)cc1 [Compound 157, 8-(4-(difluoromethyl)-phenyl)-N-methyl-6,9-dioxo-5(4-(trifluoromethyl)-benzyl)-2,5,8-triazaspiro-[3.5]nonane-2-carboxamide]",5.5 µM
10,"CNC(=O)N1CC2(C1)C(=O)N(c1ccc(C3CC3)cc1)CC(=O)N2Cc1ccc(C(F)(F)F)cc1 [Compound 158, 8-(4-cyclopropylphenyl)-N-methyl-6,9-dioxo-5-(4-(trifluoromethyl)benzyl)-2,5,8-triazaspiro[3.5]-nonane-2-carboxamide]",9.7 µM
11,"CNC(=O)N1CC2(C1)C(=O)N(c1ccc(OC(F)F)cc1)CC(=O)N2Cc1ccc(C(F)(F)F)cc1 [Compound 159, 8-(4-(difluoromethoxy)-phenyl)-N-methyl-6,9-dioxo-5-(4-(trifluoro-methyl)benzyl)-2,5,8-triazaspiro[3.5]nonane-2-carboxamide]",3.2 µM
12,"CNC(=O)N1CC2(C1)C(=O)N(c1ccc(OC(F)(F)F)cc1)CC(=O)N2Cc1ccc(C(F)(F)F)cc1 [Compound 160, N-methyl-6,9-dioxo-8-(4-(trifluoromethoxy)-phenyl)-5-(4-(trifluoromethyl)benzyl)-2,5,8-triazaspiro[3.5]-nonane-2-carboxamide]",7.1 µM
13,"C=C(C)c1ccc(N2CC(=O)N(Cc3ccc(C(F)(F)F)cc3)C3(CN(C(=O)NC)C3)C2=O)cc1 [Compound 161, N-methyl-6,9-dioxo-8-(4-(prop-1-en-2-yl)phenyl)-5-(4-(trifluoromethyl)benzyl)-2,5,8-triazaspiro[3.5]-nonane-2-carboxamide]",4.7 µM
14,"CNC(=O)N1CC2(C1)C(=O)N(c1ccc(C#N)c(F)c1)CC(=O)N2Cc1ccc(C(F)(F)F)cc1 [Compound 162, 8-(4-cyano-3-fluorophenyl)-N-methyl-6,9-dioxo-5-(4-(trifluoromethyl)benzyl)-2,5,8-triazaspiro[3.5]-nonane-2-carboxamide]",0.4 µM
15,"CNC(=O)N1CC2(C1)C(=O)N(c1cccc(Cl)c1)CC(=O)N2Cc1ccc(C(F)(F)F)cc1 [Compound 163, 8-(3-chlorophenyl)-N-methyl-6,9-dioxo-5-(4-(trifluoromethyl)benzyl)-2,5,8-triazaspiro[3.5]-nonane-2-carboxamide]",7.3 µM
16,"CNC(=O)N1CC2(C1)C(=O)N(c1ccc(C#N)cc1)CC(=O)N2Cc1ccc(Cl)cc1 [Compound 164, 5-(4-chlorobenzyl)-8-(4-cyanophenyl)-N-methyl-6,9-dioxo-2,5,8-triazaspiro-[3.5]nonane-2-carboxamide]",1.6 µM
